Assay results reported in patent publication US20260022334A1, “COMPOSITION, METHOD, AND APPLICATION THEREOF FOR IMPROVING THE QUALITY OF IN VITRO MATURATION OF OOCYTES AND PREGNANCY RATE OF EMBRYOS AFTER IN VITRO FERTILIZATION” (CHINA AGRICULTURAL UNIVERSITY, priority 2024, published 2026).
Marks after values point to notes of the source that are not given here.

Key:
[1] = tested on: ovine oocytes (cumulus-oocyte complexes); assay: In vitro maturation of ovine oocytes, in vitro fertilization and embryo culture: embryo development rate; assay type: cell-based, sheep; settings: mean ± standard error; for Cleavage rate (%): 48 h after IVF, modulators added to in vitro maturation medium; for D7 blastocyst rate (%): day 7 of culture
Method: Ovine ovaries were collected in a slaughterhouse, placed in normal saline at 35° C., and transported to the laboratory within 2 h. The ovaries were washed three times with normal saline, and follicles were punctured using a 20 G needle containing 5 mL of oocyte collection medium to release cumulus-oocyte complexes. The COCs with uniform cytoplasm and at least 3 layers of cumulus cells were collected Under a stereomicroscope.
(§1) • Control group: a routine in vitro maturation group. • Treatment group 1: a VitC (100 μg/mL)—only administration group. • Treatment group 2: an L-carnitine (1 mg/mL)—only administration group. • Treatment group 3: a THPO (200 ng/mL)—only administration group. • Treatment group 4: a VitC (50 μg/mL) and L-carnitine (500 μg/mL) combined administration group. • Treatment group 5: a VitC (50 μg/mL) and THPO (100 ng/ml) combined administration group. • Treatment group 6: an L-carnitine (500 μg/mL) and THPO (100 ng/ml) combined administration group. • Treatment group 7: a VitC (33.3 μg/mL), L-carnitine (333.3 μg/mL), and THPO (66.7 ng/mL) combined administration group.
(§2) The control group was a basal in vitro maturation medium, and the treatment groups (1-7) were prepared by adding different components or combined components to the basal maturation medium.
The collected ovine oocytes were washed three times with washing medium, then washed 3 times with the basal in vitro oocyte maturation medium pre-equilibrated for 3 h in advance, transferred to the in vitro maturation culture mediums of the control and experimental groups, and incubated in a 5% CO2, 38.5° C. incubator with saturated humidity for 22-24 h. Four-well plates were used for culture, and each well contained 600 μL of in vitro maturation culture medium and 30-35 ovine cumulus-oocyte complexes, and was covered with 300 μL of mineral oil. In vitro maturation of ovine oocytes was performed according to different groups.
For the control group, the basal in vitro oocyte maturation medium was used. The basal in vitro oocyte maturation medium was prepared as follows: TCM199+10% estrus ovine serum+1 μg/mL follicle-stimulating hormone+1 μg/mL luteinizing hormone+1 μg/mL β-estradiol+12 μg/mL DL-cysteine+100 μg/mL streptomycin+100 IU/mL penicillin.
After in vitro maturation, the matured oocytes were subjected to in vitro fertilization (IVF). Briefly, COCs were washed three times in synthetic oviductal fluid (SOF) medium with 0.2% hyaluronidase to remove cumulus cells and transferred into the IVF medium, which consisted of synthetic oviduct fluid (SOF) medium containing 2% estrus sheep serum (ESS), 3 mg/mL BSA, 6 IU/mL heparin sodium and 50 IU/mL gentamicin. For IVF, frozen semen was removed from the liquid nitrogen and thawed in a water bath at 39° C. for 1 min. Then, the sperm diluted with IVF medium and swimming up for 30 min at 38.5° C. in a humidified atmosphere at 5% CO2. The upper layer of semen was transferred into a 1.5 mL tube and then centrifuge for 5 min at 2000 rpm. The spermatozoa were carefully collected from the bottom of the centrifuge tube and added into each IVF medium with a final concentration of approximately 1×10^6 sperm/mL. Then, the oocyte and sperm were co-incubated for 20 h at 38.5° C. with 5% CO2 in a humidified atmosphere. All reagents were purchased from Sigma-Aldrich.
After IVF, presumptive zygotes were washed three times in IVC medium and then transferred to SOF medium supplemented with 1% BME-essential amino acids, 1% MEM-nonessential amino acids, 1 mM glutamine and 3 mg/mL BSA and cultured at 38.6° C. in a humidified environment with an 88% N2, 5% CO2, 7% O2. The cleavage rate and blastocyst rate were recorded at 48 h and 6-7 d after IVF. After 48 h of culture, the cleavage rate was calculated. The culture was continued until day 7, and the blastocyst rate was calculated.

[2] = tested on: ovine blastocysts; assay: Total number of blastocyst cells (DAPI staining) after in vitro maturation of ovine oocytes; assay type: cell-based, sheep; settings: ovine 7d blastocysts, FIG. 3
Text: FIG. 3 Statistical analysis of the total number of blastocyst cells after different treatments of sheep oocyte in vitro maturation. Among them, the control group is a routine in vitro maturation group, and treatment groups 1-7 are: VitC alone group, L-carnitine alone group, THPO alone group, VitC and L-carnitine combined administration group, VitC and THPO combined administration group, L-carnitine and THPO combined administration group, VitC, L-carnitine, and THPO combined administration group. The total number of blastocyst cells were obtained by counting cells after DAPI immunofluorescence staining.
as §1
The 7d blastocysts were collected, washed 3 times with PBS containing 1 mg/ml PVA (PBS-PVA), and stained with DAPI, and the total blastocyst cell number was then determined. Specifically, the zona pellucida was removed with Tyrode's medium, and the blastocysts were then fixed in PBS containing 4% polyformaldehyde for 30 min and permeabilized using PBS containing 0.5% TritonX-100 for 20 min at room temperature. The nuclei of the blastocysts were stained with 1 μg/mL DAPI, incubated for 5 min in the dark, and then mounted onto slides. DAPI cells were observed and counted under a fluorescence microscope.

[3] = tested on: recipient ewes; assay: Ovine embryo transfer and pregnancy assessment; assay type: in vivo, sheep; settings: for Pregnancy rate (%): 45 d after embryo transfer; for Number of pregnancies: B-ultrasonography 45 d after embryo transfer
Method: as §1
Transferrable embryo were selected and one blastocyst was transferred into recipient ewes using a laparoscopic procedure. Prior to embryo transfer, the ewes were fasted for at least 20 h. The embryos were transplanted into recipients with an assistant of endoscopic apparatus. The conception was detected at 45 d after embryo transfer by using B-ultrasonography and the embryo transfer pregnancy rate was calculated using the formula: […]

[4] = tested on: bovine oocytes (COCs); assay: In vitro maturation of bovine oocytes, in vitro fertilization and embryo culture: embryo development rate; assay type: cell-based; settings: for D8 blastocyst rate (%): 8 d postinsemination, number of blastocysts/number of oocytes; for effect on 48-h cleavage rate compared with the control group / effect on blastocyst development efficiency compared with the control group: in words; for 48-h cleavage rate (%): number of two-cell embryos/number of oocytes
Method: (§3) • Control group: a routine in vitro maturation group; • Treatment group 1: a VitC (100 μg/mL)—only administration group; • Treatment group 2: an L-carnitine (1 mg/mL)—only administration group; • Treatment group 3: a THPO (200 ng/mL)—only administration group; • Treatment group 4: a VitC (50 μg/mL) and L-carnitine (500 μg/mL) combined administration group; • Treatment group 5: a VitC (50 μg/mL) and THPO (100 ng/ml) combined administration group; • Treatment group 6: an L-carnitine (500 μg/mL) and THPO (100 ng/mL) combined administration group; • Treatment group 7: a VitC (33.3 μg/mL), L-carnitine (333.3 μg/mL), and THPO (66.7 ng/mL) combined administration group.
as §2
Bovine ovaries were collected from a local slaughterhouse (Dachang Hui Autonomous County, Hebei Province, China) and transported to the laboratory within two hours in saline solution containing penicillin and streptomycin. In the laboratory, bovine COCs were aspirated from follicles with a diameter of 2-8 mm to M199-HEPES containing 20 μg/mL heparin sodium, 44 μg/mL sodium pyruvate, 70 μg/mL penicillin and 50 μg/mL streptomycin. The aspirated follicular fluid was placed in 50 ml conical tubes and maintained for a period for sedimentation. The upper portion of the liquid was removed and the remaining portion was then transferred to wash buffer. COCs with a homogenous, evenly granulated ooplasm surrounded by at least three layers of compact cumulus cells were selected under a stereomicroscope for experiments. COCs were washed three times in BO-IVM medium and incubated for 22 h at 38.5° C. in a humidified atmosphere under 5% CO2 in groups of 50 containing 500 μL BO-IVM medium in four-well dishes covered with mineral oil.
After 22 h of IVM, 20 COCs were transferred to 100 μL BO-IVF medium covered with mineral oil in Petri dish (60×15 mm). Frozen-thawed sperm was purified using BO-SemenPrep. Spermatozoa were selected by Percoll method and the final concentration was adjusted to 1×10^6 in each drop. They were co-incubated in BO-IVF medium with humidified 5% CO2 in air at 38.5° C. for 18 h. Thereafter, the presumptive zygotes were transferred to BO-IVC medium in four-well dishes covered with mineral oil, and incubated with humidified 5% CO2 in air at 38.5° C. for 8 days. The cleavage rate was determined at 48 h and the blastocyst rate was estimated at 8d postinsemination.

[5] = tested on: bovine recipients; assay: Bovine embryo transfer and pregnancy rate assessment; assay type: in vivo; settings: for Number of pregnancies: B-mode ultrasonography days 45-50; for Pregnancy rate (%): days 45-50, pregnant/recipient female animals
Method: as §3
The bovine recipients were restrained and anesthetized according to requirement of sartificial insemination. After the vulva was cleaned and disinfected, the cervix was opened and the fallopian tubes were flushed. The embryo transfer catheter was inserted deep into one uterine horn using the rectal palpation method. The plunger of a syringe connected to embryos transfer catheter was pushed to inject the embryos that had developed to the blastocyst stage after in vitro fertilization, and the embryo transfer catheter was then withdrawn. The pregnancy status was assessed by B-mode ultrasonography on days 45-50 of pregnancy, and the pregnancy rate was calculated.

C[N+](C)(C)C[C@H](O)CC(=O)[O-] [Treatment group 2, L-carnitine]
Cleavage rate (%) [1]: 74.32 ± 2.31^a %
D7 blastocyst rate (%) [1]: 37.61 ± 1.85^b %
total number of blastocyst cells [2]: 82.6±2.7
Pregnancy rate (%) [3]: 54.2^a %
Number of pregnancies [3]: 26
D8 blastocyst rate (%) [4]: 32.4 ± 0.8^b %
effect on 48-h cleavage rate compared with the control group [4]: did not affect
effect on blastocyst development efficiency compared with the control group [4]: enhanced
48-h cleavage rate (%) [4]: 69.5 ± 4.3%
Number of pregnancies [5]: 12
Pregnancy rate (%) [5]: 46.2%^b
effect on pregnancy rate after embryo transfer compared with the control group ([5]; in words): can improve

Thrombopoietin [Treatment group 3]
Cleavage rate (%) [1]: 75.38 ± 2.43^a %
D7 blastocyst rate (%) [1]: 38.01 ± 1.50^b %
total number of blastocyst cells [2]: 79.4±2.3
Pregnancy rate (%) [3]: 53.1^a %
Number of pregnancies [3]: 26
D8 blastocyst rate (%) [4]: 32.2 ± 2.0^b %
48-h cleavage rate (%) [4]: 67.4 ± 3.8%
Number of pregnancies [5]: 11
Pregnancy rate (%) [5]: 42.3%^a

O=C1O[C@H]([C@@H](O)CO)C(O)=C1O [Treatment group 1, vitamin C]
Cleavage rate (%) [1]: 75.64 ± 2.83^a %
D7 blastocyst rate (%) [1]: 38.79 ± 1.97^b %
total number of blastocyst cells [2]: 80.6±3.2
Pregnancy rate (%) [3]: 50.0^a %
Number of pregnancies [3]: 25
D8 blastocyst rate (%) [4]: 33.1 ± 1.3^b %
effect on 48-h cleavage rate compared with the control group [4]: did not affect
effect on blastocyst development efficiency compared with the control group [4]: enhanced
48-h cleavage rate (%) [4]: 68.7 ± 3.1%
Number of pregnancies [5]: 11
Pregnancy rate (%) [5]: 42.3%^a
